Reference: US4898940A (priority 1989, dated 1990)
In brackets after ≈: the same amount, converted by molar mass.

What was measured:
Enterobacter cloacae = test: MIC, serial agar dilution (nutrient agar); assay type: cell-based; settings: Enterobacter cloacae A9659
From the text: (§1) Nutrient agar (Eiken) was used for bacteria and Sabouraud dextrose agar (Difco) for fungi. The inoculum size was adjusted to 10^4 CFU/ml for bacteria and 10^5 -10^7 CFU/ml for fungi.

Serratia marcescens = test: MIC, serial agar dilution (nutrient agar); assay type: cell-based; settings: Serratia marcescens A20222
From the text: as §1

Micrococcus luteus = test: MIC, serial agar dilution (nutrient agar); assay type: cell-based; settings: Micrococcus luteus PCI-1001
From the text: as §1

Streptococcus faecalis = test: MIC, serial agar dilution (nutrient agar); assay type: cell-based; settings: Streptococcus faecalis A9612
From the text: as §1

Bacillus subtilis = test: MIC, serial agar dilution (nutrient agar); assay type: cell-based; settings: Bacillus subtilis PCI-219
From the text: as §1

Klebsiella pneumoniae = test: MIC, serial agar dilution (nutrient agar); assay type: cell-based; settings: Klebsiella pneumoniae D-11
From the text: as §1

Proteus mirabilis = test: MIC, serial agar dilution (nutrient agar); assay type: cell-based; settings: Proteus mirabilis A9554
From the text: as §1

Morganella morganii = test: MIC, serial agar dilution (nutrient agar); assay type: cell-based; settings: Morganella morganii A9553
From the text: as §1

Escherichia coli = test: MIC, serial agar dilution (nutrient agar); assay type: cell-based; settings: Escherichia coli NIHJ
From the text: as §1

Pseudomonas aeruginosa = test: MIC, serial agar dilution (nutrient agar); assay type: cell-based; settings: Pseudomonas aeruginosa A9930
From the text: as §1

Proteus vulgaris = test: MIC, serial agar dilution (nutrient agar); assay type: cell-based; settings: Proteus vulgaris A9436
From the text: as §1

Staphylococcus aureus = test: MIC, serial agar dilution (nutrient agar); assay type: cell-based
From the text: as §1

[1] = test system: Staphylococcus epidermidis; test: MIC, serial agar dilution (nutrient agar); assay type: cell-based
From the text: as §1

[2] = test system: Lymphocytic leukemia P388; test: Antitumor activity against P388 leukemia in mice; assay type: in vivo, CDF1 and BDF1 mice; settings: for T/C % of MST: P388 leukemia; for antitumor activity against P388 leukemia (in words): ip
Protocol: (§2) Lymphocytic leukemia P388 (CDF1 and BDF1 mice) and lymphoid leukemia L1210 (BDF1 mice) were inoculated by intraperitoneal injection of 0.8 ml diluted ascitic fluid containing 10^6 and 10^5 cells per mouse, respectively. Melanotic melanoma B16 (BDF1 mice) were implanted 0.5 ml of a 10% tumor brei intraperitoneally. Test materials were dissolved in 0.9% saline containing 10% dimethyl sulfoxide and graded doses of them were administered to mice intraperitoneally 24 hours after tumor implantation. Either olivomycin (NSC 38270) or mitomycin C was comparatively tested as a reference compound in the experiments.
Values for percentage ratios of 125 and above indicate significant antitumor effect.

Solubility in solvents = assay type: physicochemical
Piricularia oryzae = assay type: cell-based; settings: Piricularia oryzae D 91; Sabouraud dextrose agar
Sporothrix schenckii = test: MIC, serial agar dilution (Sabouraud dextrose agar); assay type: cell-based; settings: Sporothrix schenckii IFO 8158
From the text: as §1

Blastomyces dermaditis = test: as above; assay type: cell-based; settings: Blastomyces dermaditis IFO 8144
From the text: as §1

Candida albicans = test: as above; assay type: cell-based
From the text: as §1

Fusarium moniliforme = test: as above; assay type: cell-based; settings: Fusarium moniliforme A 2284
From the text: as §1

Mucor spinosus = test: as above; assay type: cell-based; settings: Mucor spinosus IFO 5317
From the text: as §1

Petriellidium boydii = test: as above; assay type: cell-based; settings: Petriellidium boydii IFO 8073
From the text: as §1

Cryptococcus neoformans = test: as above; assay type: cell-based
From the text: as §1

Aspergillus fumigatus = test: as above; assay type: cell-based
From the text: as §1

[3] = test system: Trichophyton mentagrophytes; test: as above; assay type: cell-based
From the text: as §1

Aspergillus flavus = test: as above; assay type: cell-based; settings: Aspergillus flavus FA 21436
From the text: as §1

[4] = test system: pathogenic fungi such as Candida albicans, Cryptococcus neoformans, Aspergillus fumigatus, Trichlophyton mentagrophytes and Mucor spinosus; test: In vitro antifungal activity; assay type: cell-based; settings: clinically important pathogenic fungi
From the text: as §1

[5] = test system: gram-positive and gram-negative bacteria; test: In vitro antibacterial activity; assay type: cell-based
From the text: as §1

[6] = Acute toxicity, single intraperitoneal administration; settings: male ddY mice
lymphoid leukemia L1210 = test: Antitumor activity against L1210 leukemia in mice; assay type: in vivo, BDF1 mice; settings: L1210 leukemia, BDF1 mice
Protocol: as §2

Melanotic melanoma B16 = test: Antitumor activity against B16 melanoma in mice; assay type: in vivo, BDF1 mice; settings: B16 melanoma, BDF1 mice
Protocol: as §2

[7] = Staphylococcus epidermidis A22152
[8] = Staphylococcus epidermidis D153
[9] = 0.3 mg/kg/day ip, schedule 1 (once daily on days 1, 4 and 7)
[10] = 3 mg/kg/day ip, schedule 1 (once daily on days 1, 4 and 7)
[11] = treatment schedule 1 (once daily on days 1, 4 and 7)
[12] = Cryptococcus neoformans IAM 4514
[13] = Trichophyton mentagrophytes #4329
[14] = Trichophyton mentagrophytes D 155
[15] = 0.031 mg/kg/day ip, schedule 2 (once daily on days 1 through 9)
[16] = 0.063 mg/kg/day ip, schedule 2 (once daily on days 1 through 9)
[17] = 0.13 mg/kg/day ip, schedule 2 (once daily on days 1 through 9)
[18] = 0.25 mg/kg/day ip, schedule 2 (once daily on days 1 through 9)
[19] = 0.5 mg/kg/day ip, schedule 2 (once daily on days 1 through 9)
[20] = 1 mg/kg/day ip, schedule 2 (once daily on days 1 through 9)

CCCCCC=CCCC=CC=CC(=O)NC(C(=O)NC1CC(O)CCNC(=O)C=CC(C)NC1=O)C(C)O (stereo not drawn) [BU-2867T B]
MIC (Enterobacter cloacae): > 50 µg/mL | MIC (Serratia marcescens): > 50 µg/mL | MIC (Micrococcus luteus): 50 µg/mL (≈ 91.5 µM) | MIC (Streptococcus faecalis): > 50 µg/mL | MIC (Bacillus subtilis): 50 µg/mL (≈ 91.5 µM) | MIC (Klebsiella pneumoniae): > 50 µg/mL | MIC (Proteus mirabilis): > 50 µg/mL | MIC (Morganella morganii): > 50 µg/mL | MIC (Escherichia coli): > 50 µg/mL | MIC (Pseudomonas aeruginosa): > 50 µg/mL | MIC (Proteus vulgaris): > 50 µg/mL | MIC (Staphylococcus aureus; Staphyloccus aureus Bx-1633): 50 µg/mL (≈ 91.5 µM) | MIC (Staphylococcus aureus; Staphylococcus aureus 209P): 25 µg/mL (≈ 45.7 µM) | MIC (Staphylococcus aureus; Staphylococcus aureus Smith): 3.1 µg/mL (≈ 5.67 µM) | MIC [1, 7]: 50 µg/mL (≈ 91.5 µM) | MIC [1, 8]: 6.3 µg/mL (≈ 11.5 µM) | T/C % of MST [2, 9]: 120% | T/C % of MST ([2]; 1 mg/kg/day ip, schedule 1 (once daily on days 1, 4 and 7)): 140% | T/C % of MST [2, 10]: 165% | antitumor activity against P388 leukemia (in words) [2, 11]: showed antitumor activity | solubility in chloroform, acetonitrile and ethyl acetate (Solubility in solvents): slightly soluble | solubility in methanol, ethanol, n-butanol and dimethyl sulfoxide (Solubility in solvents): readily soluble | solubility in n-hexane and water (Solubility in solvents): practically insoluble | MIC (Piricularia oryzae): > 50 µg/mL | MIC (Sporothrix schenckii): > 50 µg/mL | MIC (Blastomyces dermaditis): 50 µg/mL (≈ 91.5 µM) | MIC (Candida albicans; Candida albicans A 9540): 1.6 µg/mL (≈ 2.93 µM) | MIC (Candida albicans; Candida albicans IAM 4888): 3.1 µg/mL (≈ 5.67 µM) | MIC (Fusarium moniliforme): > 50 µg/mL | MIC (Mucor spinosus): 0.8 µg/mL (≈ 1.46 µM) | MIC (Petriellidium boydii): > 50 µg/mL | MIC (Cryptococcus neoformans; Cryptococcus neoformans D 49): 25 µg/mL (≈ 45.7 µM) | MIC (Cryptococcus neoformans; [12]): 25 µg/mL (≈ 45.7 µM) | MIC (Aspergillus fumigatus; Aspergillus fumigatus IAM 2034): 3.1 µg/mL (≈ 5.67 µM) | MIC (Aspergillus fumigatus; Aspergillus fumigatus IAM 2530): 31 µg/mL (≈ 56.7 µM) | MIC [3, 13]: 12.5 µg/mL (≈ 22.9 µM) | MIC [3, 14]: 12.5 µg/mL (≈ 22.9 µM) | MIC (Aspergillus flavus): 25 µg/mL (≈ 45.7 µM) | antifungal activity (in words) [4]: somewhat less active than component C | activity against some gram-positive bacteria (in words) [5]: moderate activity

CCCCCCCCCC=CC=CC(=O)NC(C(=O)NC1CC(O)CCNC(=O)C=CC(C)NC1=O)C(C)O (stereo not drawn) [BU-2867T C]
MIC (Enterobacter cloacae): > 50 µg/mL | MIC (Serratia marcescens): > 50 µg/mL | MIC (Micrococcus luteus): > 50 µg/mL | MIC (Streptococcus faecalis): > 50 µg/mL | MIC (Bacillus subtilis): > 50 µg/mL | MIC (Klebsiella pneumoniae): > 50 µg/mL | MIC (Proteus mirabilis): > 50 µg/mL | MIC (Morganella morganii): > 50 µg/mL | MIC (Escherichia coli): > 50 µg/mL | MIC (Pseudomonas aeruginosa): > 50 µg/mL | MIC (Proteus vulgaris): > 50 µg/mL | MIC (Staphylococcus aureus; Staphyloccus aureus Bx-1633): > 50 µg/mL | MIC (Staphylococcus aureus; Staphylococcus aureus 209P): > 50 µg/mL | MIC (Staphylococcus aureus; Staphylococcus aureus Smith): > 50 µg/mL | MIC [1, 7]: > 50 µg/mL | MIC [1, 8]: > 50 µg/mL | T/C % of MST [2, 15]: 100% | T/C % of MST [2, 16]: 123% | T/C % of MST [2, 17]: 153% | T/C % of MST [2, 18]: 159% | T/C % of MST [2, 9]: 130% | T/C % of MST [2, 19]: 175% | T/C % of MST [2, 20]: 189% | T/C % of MST ([2]; 2 mg/kg/day ip, schedule 2 (once daily on days 1 through 9)): 234% | T/C % of MST [2, 10]: 155% | antitumor activity against P388 leukemia (in words) [2, 11]: showed antitumor activity | antitumor activity against P388 leukemia (in words) ([2]; treatment schedule 2 (once daily on days 1 through 9)): highly active | solubility in chloroform, acetonitrile and ethyl acetate (Solubility in solvents): slightly soluble | solubility in methanol, ethanol, n-butanol and dimethyl sulfoxide (Solubility in solvents): readily soluble | solubility in n-hexane and water (Solubility in solvents): practically insoluble | MIC (Piricularia oryzae): > 50 µg/mL | MIC (Sporothrix schenckii): > 50 µg/mL | MIC (Blastomyces dermaditis): > 50 µg/mL | MIC (Candida albicans; Candida albicans A 9540): 0.8 µg/mL (≈ 1.46 µM) | MIC (Candida albicans; Candida albicans IAM 4888): 1.6 µg/mL (≈ 2.92 µM) | MIC (Fusarium moniliforme): > 50 µg/mL | MIC (Mucor spinosus): 0.2 µg/mL (≈ 0.364 µM) | MIC (Petriellidium boydii): 50 µg/mL (≈ 91.1 µM) | MIC (Cryptococcus neoformans; Cryptococcus neoformans D 49): 3.1 µg/mL (≈ 5.65 µM) | MIC (Cryptococcus neoformans; [12]): 3.1 µg/mL (≈ 5.65 µM) | MIC (Aspergillus fumigatus; Aspergillus fumigatus IAM 2034): 0.8 µg/mL (≈ 1.46 µM) | MIC (Aspergillus fumigatus; Aspergillus fumigatus IAM 2530): 0.8 µg/mL (≈ 1.46 µM) | MIC [3, 13]: 6.3 µg/mL (≈ 11.5 µM) | MIC [3, 14]: 1.6 µg/mL (≈ 2.92 µM) | MIC (Aspergillus flavus): 50 µg/mL (≈ 91.1 µM) | antifungal activity (in words) [4]: potent antifungal activity | growth inhibition of gram-positive and gram-negative bacteria (in words) ([5]; at 50 mcg/ml): did not inhibit the growth | LD50 [6]: 25 mg/kg

CO[C@@]12[C@H](COC(N)=O)C3=C(C(=O)C(C)=C(N)C3=O)N1C[C@@H]1N[C@@H]12 [Mitomycin C, reference compound]
T/C % of MST [2, 15]: 115% | T/C % of MST [2, 16]: 130% | T/C % of MST [2, 17]: 150% | T/C % of MST [2, 18]: 170% | T/C % of MST [2, 19]: 240% | T/C % of MST [2, 20]: 290% | T/C % of MST (lymphoid leukemia L1210; 0.063 mg/kg/day ip): 106% | T/C % of MST (lymphoid leukemia L1210; 0.13 mg/kg/day ip): 129% | T/C % of MST (lymphoid leukemia L1210; 0.25 mg/kg/day ip): 129% | T/C % of MST (lymphoid leukemia L1210; 0.5 mg/kg/day ip): 141% | T/C % of MST (lymphoid leukemia L1210; 1 mg/kg/day ip): 140% | T/C % of MST (Melanotic melanoma B16; 0.13 mg/kg/day ip): 131% | T/C % of MST (Melanotic melanoma B16; 0.25 mg/kg/day ip): 141% | T/C % of MST (Melanotic melanoma B16; 0.5 mg/kg/day ip): 163% | T/C % of MST (Melanotic melanoma B16; 1 mg/kg/day ip): 181% | T/C % of MST (Melanotic melanoma B16; 2 mg/kg/day ip): 63%

Olivomycin A [reference compound]
T/C % of MST [2, 9]: 100%
